Series [1] in a line: solubility in water. It is filed as physicochemical.
Series [2] can be described thus: stability in water solution. The conditions noted are these: decomposition especially at a low pH. It is filed as physicochemical.
For series [3] the following is noted: administered intravenously to a human patient; average; cited from earlier work.

We go through two compounds from patent publication US6492382B1, “Dried or frozen pharmaceutical preparation containing a class III antiarrhythmic compound” (AstraZeneca AB, priority 1998, dated 2002).

Each structure is given as a SMILES string. “Also recorded” adds a separate entry of the source.

Regarding `CC(C)(C)OC(=O)N1CC2CC(CN(C[C@H](O)COc3ccc(C#N)cc3)C2)C1` [Compound A, 3,7-diazabicyclo[3.3.1]-nonane-3-carboxylic acid, 7-[(2S)-3-(4-cyanophenoxy)-2-hydroxypropyl]-1,1-dimethylethyl ester], the solubility in water result in series [1] is recorded as “poorly soluble in water; also recorded: low water solubility”. In addition, the “stability in water solutions” value in series [2] was “unstable in water solutions; also recorded: decomposition in water solution”.

Take `CCCCCCCN(CC)CCCC(O)c1ccc(NS(C)(=O)=O)cc1` (stereo not drawn) [ibutilide]: the half-life of elimination entry in series [3] is “around 6 hours”.
